Laboratory results reported in patent publication US7582616B2, “Nucleoside transport inhibitors” (Quesrema Enterprises LLC, priority 2003, dated 2009).
Marks after values point to notes of the source that are not given here.

How the values were obtained:
rat heart = assay: Rat heart isolated model, recovery from global ischemia; format: in vivo; details: for Percentage recovery relative to control levels: global ischemia; for Change in EDP / Recovery from 30 min Global Ischemia (LVDP): treatment during ischemia and reperfusion, mean SEM; for Change in EDP: end diastolic pressure; for Recovery from 30 min Global Ischemia (LVDP): left ventricular developed pressure
From the text: In addition, treatment with compound 4 also appears to keep the heart more relaxed than treatment with either control or NBMPR, an added benefit not seen with the standard agent.

[1] = molecular target: T1, es nucleoside transporter (Homo sapiens, UniProt Q99808); assay: Flow cytometric es nucleoside transporter binding assay (displacement of 5-(SAENTA)-X8-fluorescein) in K562 cells; details: for Ki: 25 nM 5-(SAENTA)-X8-fluorescein, 45 minutes, room temperature, read-out: Flow Cytometrically-Determined Ki Values; for Ki at the es transporter, in words: displacement of 5-(SAENTA)-X8-fluorescein
T1 construct: endogenous in cells; host or cells: K562 human chronic myelogenous leukemia cells (intact cells)
T1 sequence (Q99808 1-456): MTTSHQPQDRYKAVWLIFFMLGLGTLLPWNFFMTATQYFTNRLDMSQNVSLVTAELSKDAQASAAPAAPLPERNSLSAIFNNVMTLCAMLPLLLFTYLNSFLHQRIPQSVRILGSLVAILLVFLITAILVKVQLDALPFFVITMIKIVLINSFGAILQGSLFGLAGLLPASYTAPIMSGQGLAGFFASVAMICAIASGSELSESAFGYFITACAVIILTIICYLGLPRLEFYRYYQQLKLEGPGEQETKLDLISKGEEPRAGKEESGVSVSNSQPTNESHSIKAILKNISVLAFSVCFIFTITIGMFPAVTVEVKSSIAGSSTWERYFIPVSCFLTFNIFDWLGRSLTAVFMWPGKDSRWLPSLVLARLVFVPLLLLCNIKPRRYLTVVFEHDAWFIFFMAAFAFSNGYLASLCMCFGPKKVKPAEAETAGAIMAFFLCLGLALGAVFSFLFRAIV
Experimental: FIG. 1 is a graph showing the equilibrium displacement of SAENTA-fluorescein ligand by of new tetrahydroisoquinoline constrained NBMPR analogs in K562 cells. Cells are incubated with 25 nM SAENTA fluorescein in the presence of inhibitor for 45 minutes at room temperature and analyzed by flow cytometry.
Exemplary compounds are tested to determine their es nucleoside transporter binding ability by a flow cytometric assay (Buolamwini et al., 1994). Human leukemia K562 cells growing in RPMI 1640 medium are washed once and suspended at 1.6×10^6 cells/ml in phosphate-buffered saline at pH 7.4, and incubated with 5-(SAENTA)-X8-fluorescein (25 nM) in the presence or absence of varying concentrations of test compounds at room temperature for 45 minutes. Flow cytometric measurements for cell-associated fluorescence are then performed with a FACSCalibur (Becton Dickinson, San Jose, Calif.) equipped with a 15 mW-argon laser (Molecular Resources Flow Cytometry Facility, University of Tennessee Health Sciences Center). In each assay, 5,000 cells are analyzed from suspensions of 4×10^5 cells/ml. The units of fluorescence are arbitrary channel numbers. Percentage (%) of control (i.e. es transporter-specific fluorescence in the presence of SAENTA-fluor without test compounds) is calculated for each sample by the equation below.
[formula] • where SFs is the es transporter-specific fluorescence of test samples, and SFf is the es transporter-specific fluorescence of the SAENTA-fluor ligand standard.
The results are fed into the PRISM program (GraphPad, San Diego, Calif.) to derive concentration-dependent curves using nonlinear regression, as shown in FIG. 1. From these curves, the IC50 values are obtained that are used to compare abilities of the new compounds to displace the es transporter-specific ligand (5-(SAENTA)-X8-fluorescein (Buolamwini et al., 1994).
Examples of the present invention (2-5) are tested along with 6-(1,2,3,4-tetrahydroisoquinolinyl)purine riboside (23) as es transporter binding ligands by a facile competitive binding flow cytometric assay using the K562 chronic myelogenous leukemia cell line. The high-affinity es transporter fluorescent ligand, 5-(SAENTA)-X8-fluorescein is used as the competitive ligand to be displaced by the test compounds.

[2] = test system: nucleoside transporter (uridine uptake in JB6 cells); assay: Inhibition of [3H]uridine uptake in JB6 cells; format: cell-based; details: 1 μM [3H]uridine, 10-second uptake
Experimental: FIG. 2 is a graph showing inhibition of [^3H]uridine uptake by NBMPR (•) and a novel tetrahydroisoquinoline analogue compound 12 (◯) in JB6 cells. Cells in logarithmic phase of growth are incubated with 1 μM […] and 10-second uptake measurements were performed as described in Paterson et al. (1983). The data points are mean ±std for triplicate samples.
Cells in logarithmic phase of growth are incubated with 1 μM [^3H]uridine and 10-second uptake measurements are performed as described in Paterson et al. (1983).

es transporter = molecular target: T2, es transporter (Homo sapiens, UniProt Q99808); details: product of in vivo loss of the nitrobenzyl group of NBMPR; cited from earlier work
T2 sequence (Q99808 1-456): T1 sequence (Q99808 1-456)

Structure (SMILES): O=[N+]([O-])c1ccc2c(c1)CN(c1ncnc3c1ncn3[C@@H]1O[C@H](CO)[C@@H](O)[C@H]1O)CC2 [Compound 4]
- Percentage recovery relative to control levels (rat heart): triples
- Change in EDP (rat heart): 52.5 ± 6.6%^f
- Recovery from 30 min Global Ischemia (LVDP) (rat heart): 33.60 ± 9.8% (n = 4)^e
- IC50 / binding to the es transporter (inhibition of SAENTA-fluor binding), in words, FIG. 1 [1]: low nanomolar range
- Ki [1]: 0.45 nM
- IC50 for inhibition of uridine uptake, FIG. 2 [2]: single digit nanomolar range

Structure (SMILES): OC[C@H]1O[C@@H](n2cnc3c(=S)nc[nH]c32)[C@H](O)[C@@H]1O [mercaptopurine riboside]
- Decrease in es transporter affinity compared with NBMPR (es transporter): ≤ 1000 fold

Structure (SMILES): O=[N+]([O-])c1cccc2c1CN(c1ncnc3c1ncn3[C@@H]1O[C@H](CO)[C@@H](O)[C@H]1O)CC2 [Compound 5]
- IC50 / binding to the es transporter (inhibition of SAENTA-fluor binding), in words, FIG. 1 [1]: much less potent inhibitors
- Ki [1]: 300 nM
- Ki at the es transporter, in words [1]: high nanomolar concentrations

Structure (SMILES): O=[N+]([O-])c1ccc2c(c1)CCN(c1ncnc3c1ncn3[C@@H]1O[C@H](CO)[C@@H](O)[C@H]1O)C2 [Compound 3]
- melting point: 148 to 149 °C
- IC50 / binding to the es transporter (inhibition of SAENTA-fluor binding), in words, FIG. 1 [1]: bound as tightly as the prototype compound, NBMPR
- Ki [1]: 15 nM

Structure (SMILES): OC[C@H]1O[C@@H](n2cnc3c(N4CCc5ccccc5C4)ncnc32)[C@H](O)[C@@H]1O [Compound 23, 6-(1,2,3,4-tetrahydroisoquinolinyl)purine riboside]
- Ki [1]: 150 nM

Structure (SMILES): O=[N+]([O-])c1ccc(CSc2ncnc3c2ncn3[C@@H]2O[C@H](CO)[C@@H](O)[C@H]2O)cc1 [Compound 1, nitrobenzylthioinosine, reference compound]
- Percentage recovery relative to control levels (rat heart): doubles
- Change in EDP (rat heart): 65.2 ± 3.2%
- Recovery from 30 min Global Ischemia (LVDP) (rat heart): 24.40 ± 3.6% (n = 5)^d

Structure (SMILES): O=[N+]([O-])c1cccc2c1CCN(c1ncnc3c1ncn3[C@@H]1O[C@H](CO)[C@@H](O)[C@H]1O)C2 [Compound 2]
- IC50 / binding to the es transporter (inhibition of SAENTA-fluor binding), in words, FIG. 1 [1]: much less potent inhibitors
- Ki [1]: 250 nM
- Ki at the es transporter, in words [1]: high nanomolar concentrations
